Experiments:
[1] = biological target: T1, recombinant human Meningioma Expressed Antigen 5 (MGEA5), also referred to as O-GlcNAcase (OGA) (Homo sapiens, UniProt O60502); assay: OGA biochemical assay: inhibition of hydrolysis of fluorescein mono-ß-D-N-Acetyl-Glucosamine (FM-GlcNAc), fluorescence readout; conditions: FM-GlcNAc substrate; for Emax: read-out: Enzymatic Emax (%); for IC50: read-out: Enzymatic hOGA, pIC50 (converted)
T1 construct: Full length OGA enzyme was purchased at OnGene (cat #TP322411); purchased OnGene (so in the source)
T1 sequence (O60502 1-916): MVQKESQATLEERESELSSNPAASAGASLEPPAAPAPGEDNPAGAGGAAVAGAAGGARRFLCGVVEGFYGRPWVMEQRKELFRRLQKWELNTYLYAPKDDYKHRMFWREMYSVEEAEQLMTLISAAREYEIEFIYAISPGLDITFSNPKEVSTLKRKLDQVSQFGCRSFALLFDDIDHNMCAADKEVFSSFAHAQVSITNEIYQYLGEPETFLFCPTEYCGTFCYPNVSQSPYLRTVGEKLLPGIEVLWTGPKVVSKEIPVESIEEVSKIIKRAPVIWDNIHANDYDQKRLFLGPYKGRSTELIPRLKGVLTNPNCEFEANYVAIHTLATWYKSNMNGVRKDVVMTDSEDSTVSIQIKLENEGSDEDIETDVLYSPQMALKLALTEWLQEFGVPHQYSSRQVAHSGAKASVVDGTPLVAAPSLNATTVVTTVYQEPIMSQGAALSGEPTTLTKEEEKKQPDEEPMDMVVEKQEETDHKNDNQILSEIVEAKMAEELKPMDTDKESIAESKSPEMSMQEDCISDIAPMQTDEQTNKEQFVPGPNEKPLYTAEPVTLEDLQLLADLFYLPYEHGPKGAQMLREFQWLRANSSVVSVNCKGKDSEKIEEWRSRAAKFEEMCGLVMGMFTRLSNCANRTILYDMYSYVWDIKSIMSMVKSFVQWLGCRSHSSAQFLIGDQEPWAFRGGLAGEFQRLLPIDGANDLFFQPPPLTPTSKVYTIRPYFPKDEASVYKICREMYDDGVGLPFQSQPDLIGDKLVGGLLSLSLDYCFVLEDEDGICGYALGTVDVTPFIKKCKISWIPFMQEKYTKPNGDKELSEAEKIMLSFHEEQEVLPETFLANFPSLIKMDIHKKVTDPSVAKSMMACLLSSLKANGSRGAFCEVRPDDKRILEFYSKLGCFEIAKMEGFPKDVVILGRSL
From the text: The assay is based on the inhibition of the hydrolysis of fluorescein mono-ß-D-N-Acetyl-Glucosamine (FM-GlcNAc) (Mariappa et al. 2015, Biochem J 470:255) by the recombinant human Meningioma Expressed Antigen 5 (MGEA5), also referred to as O-GlcNAcase (OGA). The hydrolysis FM-GlcNAc (Marker Gene technologies, cat #M1485) results in the formation of ß-D-N-glucosamineacetate and fluorescein. The fluorescence of the latter can be measured at excitation wavelength 485 nm and emission wavelength 538 nm. An increase in enzyme activity results in an increase in fluorescence signal. Full length OGA enzyme was purchased at OnGene (cat #TP322411). The enzyme was stored in 25 mM Tris.HCl, pH 7.3, 100 mM glycine, 10% glycerol at −20° C. Thiamet G and GlcNAcStatin were tested as reference compounds (Yuzwa et al. 2008 Nature Chemical Biology 4:483; Yuzwa et al. 2012 Nature Chemical Biology 8:393). The assay was performed in 200 mM Citrate/phosphate buffer supplemented with 0.005% Tween-20. 35.6 g Na2HPO4 2 H2O (Sigma, #C0759) were dissolved in 1 L water to obtain a 200 mM solution. 19.2 g citric acid (Merck, #1.06580) was dissolved in 1 L water to obtain a 100 mM solution. pH of the sodium phosphate solution was adjusted with the citric acid solution to 7.2. The buffer to stop the reaction consists of a 500 mM Carbonate buffer, pH 11.0. 734 mg FM-GlcNAc were dissolved in 5.48 mL DMSO to obtain a 250 mM solution and was stored at −20° C. OGA was used at a 2 nM concentration and FM-GlcNAc at a 100 uM final concentration. Dilutions were prepared in assay buffer. 50 nl of a compound dissolved in DMSO was dispensed on Black Proxiplate™ 384 Plus Assay plates (Perkin Elmer, #6008269) and 3 μl fl-OGA enzyme mix added subsequently. Plates were pre-incubated for 60 min at room temperature and then 2 μl FM-GlcNAc substrate mix added. […] Plates were briefly centrifuged for 1 min at 1000 rpm and incubate at room temperature for 6 h. To stop the reaction 5 μl STOP buffer were added and plates centrifuge again 1 min at 1000 rpm. Fluorescence was quantified in the Thermo Scientific Fluoroskan Ascent or the PerkinElmer EnVision with excitation wavelength 485 nm and emission wavelength 538 nm. For analysis a best-fit curve is fitted by a minimum sum of squares method. From this an IC50 value and Hill coefficient was obtained. High control (no inhibitor) and low control (saturating concentrations of standard inhibitor) were used to define the minimum and maximum values.

[2] = tested on: OGA in HEK293 cells inducible for P301L mutant human Tau (isoform 2N4R); assay: OGA cellular assay: immunocytochemical detection of O-GlcNAcylated proteins (CTD110.6 antibody); assay type: cell-based; conditions: Homo sapiens, HEK293, 6 h, 6 hours incubation; for Emax: maximum = Thiamet G 200 uM; for EC50: read-out: Cellular hOGA, pEC50 (converted)
Procedure: HEK293 cells inducible for P301L mutant human Tau (isoform 2N4R) were established at Janssen. Thiamet-G was used for both plate validation (high control) and as reference compound (reference EC50 assay validation). OGA inhibition is evaluated through the immunocytochemical (ICC) detection of O-GlcNAcylated proteins by the use of a monoclonal antibody (CTD110.6; Cell Signaling, #9875) detecting 0-GlcNAcylated residues as previously described (Dorfmueller et al. 2010 Chemistry & biology, 17:1250). Inhibition of OGA will result in an increase of O-GlcNAcylated protein levels resulting in an increased signal in the experiment. Cell nuclei are stained with Hoechst to give a cell culture quality control and a rough estimate of immediate compounds toxicity, if any. ICC pictures are imaged with a Perkin Elmer Opera Phenix plate microscope and quantified with the provided software Perkin Elmer Harmony 4.1.
Cells were propagated in DMEM high Glucose (Sigma, #D5796) following standard procedures. 2 days before the cell assay cells are split, counted and seeded in Poly-D-Lysine (PDL) coated 96-wells (Greiner, #655946) plate at a cell density of 12,000 cells per cm^2 (4,000 cells per well) in 100p of Assay Medium (Low Glucose medium is used to reduce basal levels of GlcNAcylation) (Park et al. 2014 The Journal of biological chemistry 289:13519). At the day of compound test medium from assay plates was removed and replenished with 90 µl of fresh Assay Medium. 10p of compounds at a 10 fold final concentration were added to the wells. Plates were centrifuged shortly before incubation in the cell incubator for 6 hours. DMSO concentration was set to 0.2%. Medium is discarded by applying vacuum. For staining of cells medium was removed and cells washed once with 100 μl D-PBS (Sigma, #D8537). From next step onwards unless other stated assay volume was always 50p and incubation was performed without agitation and at room temperature. Cells were fixed in 50 μl of a 4% paraformaldehyde (PFA, Alpha aesar, #043368) PBS solution for 15 minutes at room temperature. […] Before analysis samples were washed 2 times manually for 5 minutes in ICC base buffer.
Imaging is performed using Perkin Elmer Phenix Opera using a water 20× objective and recording 9 fields per well. Intensity readout at 488 nm is used as a measure of O-GlcNAcylation level of total proteins in wells. To assess potential toxicity of compounds nuclei were counted using the Hoechst staining. IC50-values are calculated using parametric non-linear regression model fitting. As a maximum inhibition Thiamet G at a 200 uM concentration is present on each plate. In addition, a concentration response of Thiamet G is calculated on each plate.

Emax [1] | IC50 [1] | SMILES | Emax [2] | EC50 [2]
101% | 24.5 nM | Cc1cncc(C)c1Nc1nccc2c1ccn2CC1CC1 [Compound 41] | 71% | 95.5 nM
100% | 34.7 nM | CCCCn1ccc2c(Nc3c(Cl)cncc3Cl)nccc21 [Compound 42] | 49% | > 1000 nM
99% | 24 nM | CCCCn1ccc2c(Nc3c(F)cncc3C3CC3)nccc21 [Compound 43] | 50% | 676 nM
100% | 35.5 nM | CCCCn1ccc2c(Nc3c(F)cncc3CC)nccc21 [Compound 44] | 69% | 302 nM
103% | 10.5 nM | CCCCn1ccc2c(Nc3c(C)cc4c(c3C)C(=O)N(C)C4)nccc21 [Compound 45] | 87% | 16.6 nM
99% | 17.8 nM | CCCCn1ccc2c(Nc3c(F)cncc3C(C)C)nccc21 [Compound 46] | 67% | 251 nM
101% | 11.7 nM | Cc1ccnc(C)c1Nc1nccc2c1ccn2CCC(C)C [Compound 47] | 95% | 47.9 nM
102% | 10.7 nM | Cc1cncc(C)c1Nc1nccc2c1ccn2CCC(C)C [Compound 48] | 86% | 30.9 nM
103% | 11.7 nM | Cc1cncc(C)c1Nc1nccc2c1ccn2CCC1CC1 [Compound 49] | 63% | 79.4 nM
102% | 12.6 nM | N#CCCCn1ccc2c(Nc3c(Cl)cccc3Cl)nccc21 [Compound 50] | 78% | 302 nM
102% | 11.2 nM | CCCCn1ccc2c(Nc3c(Cl)ccc4c3OCCO4)nccc21 [Compound 51] | 76% | 117 nM
103% | 9.55 nM | CCCCn1ccc2c(Nc3c(C)cncc3C)nccc21 [Compound 52] | 72% | 26.9 nM
105% | 1.86 nM | CCCCn1ccc2c(Nc3c(C)cc4c(c3C)OCCO4)nccc21 [Compound 53] | 82% | 20.4 nM
104% | 2.04 nM | CCCCn1ccc2c(Nc3c(C)cc(-c4cnn(C)c4)cc3C)nccc21 [Compound 54] | 82% | 20.9 nM
103% | 1.7 nM | CCCCn1ccc2c(Nc3c(C)ccc(C(=O)N4CCCC4)c3C)nccc21 [Compound 55] | 104% | 22.4 nM
101% | 2.69 nM | CCCCn1ccc2c(Nc3c(C)cc(C(=O)N4CCOCC4)cc3C)nccc21 [Compound 56] | 107% | 5.13 nM
102% | 4.57 nM | CCCCn1ccc2c(Nc3c(C)cc(C(=O)NC)cc3C)nccc21 [Compound 57] | 107% | 11 nM
101% | 3.09 nM | CCCCn1ccc2c(Nc3c(C)ccc(C(=O)NC)c3C)nccc21 [Compound 58] | 88% | 72.4 nM
101% | 4.37 nM | CCCCn1ccc2c(Nc3c(C)ccc(C(=O)N(C)C)c3C)nccc21 [Compound 59] | 88% | 100 nM
102% | 3.63 nM | CC(C)CCn1ccc2c(Nc3c(Cl)cccc3Cl)nccc21 [Compound 60] | 86% | 55 nM
103% | 3.72 nM | CCCCn1ccc2c(Nc3c(C)cc(C(=O)N(C)C)cc3C)nccc21 [Compound 61] | 92% | 5.89 nM
101% | 5.37 nM | CCCCn1ccc2c(Nc3c(C)cc(NC(C)=O)cc3C)nccc21 [Compound 62] | 95% | 9.33 nM
103% | 2.88 nM | CCCCn1ccc2c(Nc3c(C)cncc3C(C)C)nccc21 [Compound 63] | 93% | 12.3 nM
102% | 3.98 nM | CCCCn1ccc2c(Nc3c(C)cc(C(=O)OC)cc3C)nccc21 [Compound 64] | 80% | 24.5 nM
104% | 5.37 nM | Cc1cncc(Cl)c1Nc1nccc2c1ccn2CCC1CC1 [Compound 65] | 69% | 120 nM
103% | 3.8 nM | CCCCn1ccc2c(Nc3c(C)cc(C)c(Br)c3C)nccc21 [Compound 66] | 84% | 186 nM
104% | 0.891 nM | CCCCn1ccc2c(Nc3c(C)cccc3C(C)C)nccc21 [Compound 67] | 99% | 16.2 nM
